Read-outs that look alike come from different tables or passages of the source. One block for each compound: values may come before it.
How the values were obtained:
VP [1] = system: T1, VP; test: spectrophotometric oxidation, […] nm; format: biochemical, Physisporinus vitreus; conditions: 50 mM malonate pH 4.5, 0.1 mM H2O2, with or without 1 mM MnSO4 (not told per substrate)
T1 construct: native secreted enzyme purified from solid corn stover cultures; single band

Lac [2] = conditions: read-out: K m (mol L^-1) / Lac; 50 mM malonate pH 4.5
VP [3] = conditions: read-out: K m (mol L^-1) / VP; 50 mM malonate pH 4.5, 0.1 mM H2O2, with or without 1 mM MnSO4 (not told per substrate)
VP [4] = system: T1, VP; test: spectrophotometric oxidation, […] nm; format: biochemical, Physisporinus vitreus; conditions: 50 mM malonate pH 4.5, 0.1 mM H2O2, with or without 1 mM MnSO4 (not told per substrate); remark: listed apart in the source
Lac [5] = system: T2, Lac; test: spectrophotometric oxidation, […] nm; format: biochemical, Physisporinus vitreus; conditions: 50 mM malonate pH 4.5; read-out: K m (mol L^-1) / Lac
T2 construct: native secreted enzyme purified from solid corn stover cultures; single band

VP [6] = system: T1, VP; test: spectrophotometric oxidation, […] nm; format: biochemical, Physisporinus vitreus; conditions: 50 mM malonate pH 4.5, 0.1 mM H2O2, with or without 1 mM MnSO4 (not told per substrate); read-out: K m (mol L^-1) / VP
VP [7] = system: T1, VP; test: spectrophotometric oxidation, […] nm; format: biochemical, Physisporinus vitreus; conditions: 50 mM malonate pH 4.5, 0.1 mM H2O2, with or without 1 mM MnSO4 (not told per substrate); read-out: K m (mol L^-1) / VP; remark: listed apart in the source
Lac [8] = system: T2, Lac; test: spectrophotometric oxidation, […] nm; format: biochemical, Physisporinus vitreus; conditions: 50 mM malonate pH 4.5; read-out: K m (mol L^-1) / Lac; remark: listed apart in the source

Km (VP [4]): 14.2 µM
SMILES: Nc1c(N=Nc2ccc(S(=O)(=O)CCOS(=O)(=O)O)cc2)c(S(=O)(=O)O)cc2cc(S(=O)(=O)O)c(N=Nc3ccc(S(=O)(=O)CCOS(=O)(=O)O)cc3)c(O)c12 [RB5]

Km (VP [7]): 130 µM | Km (Lac [8]): 900 µM
SMILES: COc1ccccc1O [Guaiacol]

Continued, compound first:

SMILES: COc1ccc(CO)cc1OC [VA]
Km (VP [1]): 213 µM

SMILES: CCn1c(=NN=c2sc3cc(S(=O)(=O)O)ccc3n2CC)sc2cc(S(=O)(=O)O)ccc21 [ABTS]
Km (Lac [2]): 13 µM | Km (VP [3]): 35 µM

SMILES: Cc1cccc(C)c1O [2,6-DMP]
Km (Lac [5]): 280 µM | Km (VP [6]): 44 µM

— publication PMC5598073, “A novel and efficient fungal delignification strategy based on versatile peroxidase for lignocellulose bioconversion” (Biotechnology for Biofuels, 2017)
